Reference: patent publication US20170275287A1, “NOVEL N2, N4, N7, 6-TETRASUBSTITUTED PTERIDINE-2,4,7-TRIAMINE AND 2, 4, 6, 7-TETRASUBSTITUTED PTERIDINE COMPOUNDS AND METHODS OF SYNTHESIS AND USE THEREOF” (Janus Biotherapeutics, Inc., priority 2014, published 2017)
Like-named read-outs stand apart in the source and are kept apart here.

Key:
TLR7 = target: T1, TLR7 (Mus musculus, UniProt P58681); test: In vivo TLR7 knockdown (JB6011 agonist challenge); design: species or system mice; settings: for ED50: translated for a 25 gram mouse
T1 construct: endogenous in cells
T1 sequence (P58681 27-1050): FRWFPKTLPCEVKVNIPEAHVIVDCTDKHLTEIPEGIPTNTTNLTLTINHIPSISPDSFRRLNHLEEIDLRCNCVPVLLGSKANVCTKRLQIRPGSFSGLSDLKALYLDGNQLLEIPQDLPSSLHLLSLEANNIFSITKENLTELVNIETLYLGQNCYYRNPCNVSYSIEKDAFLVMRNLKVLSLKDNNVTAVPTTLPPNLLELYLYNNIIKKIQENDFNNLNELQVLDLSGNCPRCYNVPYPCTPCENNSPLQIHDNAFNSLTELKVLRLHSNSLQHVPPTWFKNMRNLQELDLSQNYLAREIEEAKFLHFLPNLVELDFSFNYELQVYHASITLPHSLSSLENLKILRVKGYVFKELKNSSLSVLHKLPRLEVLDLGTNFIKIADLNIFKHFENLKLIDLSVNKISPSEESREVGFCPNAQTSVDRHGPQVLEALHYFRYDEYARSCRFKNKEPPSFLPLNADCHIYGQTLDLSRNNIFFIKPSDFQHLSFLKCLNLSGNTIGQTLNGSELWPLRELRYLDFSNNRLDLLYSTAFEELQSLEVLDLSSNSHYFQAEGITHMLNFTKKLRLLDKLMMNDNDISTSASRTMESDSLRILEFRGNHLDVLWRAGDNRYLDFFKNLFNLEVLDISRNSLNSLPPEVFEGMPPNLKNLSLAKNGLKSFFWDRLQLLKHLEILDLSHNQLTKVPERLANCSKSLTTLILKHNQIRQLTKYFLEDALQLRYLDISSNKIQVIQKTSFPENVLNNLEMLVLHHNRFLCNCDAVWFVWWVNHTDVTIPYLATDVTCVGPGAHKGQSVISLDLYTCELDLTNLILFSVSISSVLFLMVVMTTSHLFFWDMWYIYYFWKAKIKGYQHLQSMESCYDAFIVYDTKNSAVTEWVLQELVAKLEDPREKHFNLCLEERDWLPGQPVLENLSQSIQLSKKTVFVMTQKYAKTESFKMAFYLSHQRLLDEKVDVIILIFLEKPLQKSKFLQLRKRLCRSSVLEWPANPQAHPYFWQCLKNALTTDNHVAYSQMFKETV
Method: Mice were treated with test antagonist at varying doses at T=0 hr. Agonist treatment (CpG-DNA) dosed one hour later, T=1 hr for IP groups and two hours later, T=2 hr for PO groups. Necropsy performed 3 hours post agonist treatment, T=4 hr (IP groups) or T=5 hr (PO groups). Serum cytokines induced by the TLR agonist are measured by ELISA. Groups size per dose, n=3. The mean+/−SD of two independent ELISA's at differing serum dilutions is plotted.
JB6121 was also tested in vivo for TLR7 knockdown activity utilizing the TLR7 small molecule agonist JB6011 as the agonist challenge. […] This roughly translates to a 3.92 mg/kg IP dose and 11.44 mg/kg PO dose for a 25 gram mouse.

hERG = target: T2, hERG (Homo sapiens, UniProt Q12809); test: hERG automated patch clamp (CEREP); assay type: cell-based
T2 construct: host or cells: CHO (Chinese hamster ovary)
Method: Preliminary screening measures were conducted by CEREP. All values fall within acceptable limits (Table 5). Solubility assays where performed by CEREP, Seattle, Wash., according to Lipinski, C. A. et al., 1997, Adv. Drug Del. Rev., 46:3-26. Protein binding assays where performed by CEREP, Seattle, Wash., according to Banker, M. J. et al., 2003, J. Pharm. Sci., 92:967-974. Permeability assays where performed by CEREP, Seattle, Wash. according to Hildalgo, I. J., 1998, Gastroenterology, 96:736-749. Metabolic stability assays where performed by CEREP, Seattle, Wash., according to Obach, R. S. et al., 1997, J. Pharmacol. Exp. Ther., 283:46-58. P-glycoprotein inhibition assays where performed by CEREP, Seattle, Wash., according to Polli, J. W. et al., 2001, J. Pharm. Exp. Ther., 299:620-628. Cell viability assays where performed by CEREP, Seattle, Wash., according to Mosmann, T., 1983, J. Immunol. Met. 65:55-62. hERG automated patch clamp assays where performed by CEREP, Seattle, Wash., according to Mathes, C., 2006, Expert Opin. Ther. Targets, 10:230-241.

[1] = target: COMT (catechol-O-methyl transferase) (Sus scrofa, UniProt D3K5L3); test: Receptor cross-reactivity enzyme panel (CEREP); assay type: biochemical; settings: read-out: % Ligand Inhibition, COMT
Description: The receptor cross-reactivity profile is composed of 71 binding and 27 enzyme assays. The binding assay panel is broadly defined with roughly an equal number of selective, central and peripheral therapeutically relevant targets. The enzyme assay panel includes the most representative targets from diverse enzyme families with a particular focus on phosphatases and specific enzymes involved in cell cycle regulation. Assays where performed by CEREP, Seattle, Wash., with protocols similar to Cordeaux, Y. et al., 2004 Brit. J. Pharmacol., 143:705-714. JB6121 was tested for receptor cross reactivity at 10 μM for approximately 100 receptors and enzymes. Any % inhibition greater than 50% (IC50<10 μM) is highlighted below in Table 7.

T2 sequence (Q12809 whole entry): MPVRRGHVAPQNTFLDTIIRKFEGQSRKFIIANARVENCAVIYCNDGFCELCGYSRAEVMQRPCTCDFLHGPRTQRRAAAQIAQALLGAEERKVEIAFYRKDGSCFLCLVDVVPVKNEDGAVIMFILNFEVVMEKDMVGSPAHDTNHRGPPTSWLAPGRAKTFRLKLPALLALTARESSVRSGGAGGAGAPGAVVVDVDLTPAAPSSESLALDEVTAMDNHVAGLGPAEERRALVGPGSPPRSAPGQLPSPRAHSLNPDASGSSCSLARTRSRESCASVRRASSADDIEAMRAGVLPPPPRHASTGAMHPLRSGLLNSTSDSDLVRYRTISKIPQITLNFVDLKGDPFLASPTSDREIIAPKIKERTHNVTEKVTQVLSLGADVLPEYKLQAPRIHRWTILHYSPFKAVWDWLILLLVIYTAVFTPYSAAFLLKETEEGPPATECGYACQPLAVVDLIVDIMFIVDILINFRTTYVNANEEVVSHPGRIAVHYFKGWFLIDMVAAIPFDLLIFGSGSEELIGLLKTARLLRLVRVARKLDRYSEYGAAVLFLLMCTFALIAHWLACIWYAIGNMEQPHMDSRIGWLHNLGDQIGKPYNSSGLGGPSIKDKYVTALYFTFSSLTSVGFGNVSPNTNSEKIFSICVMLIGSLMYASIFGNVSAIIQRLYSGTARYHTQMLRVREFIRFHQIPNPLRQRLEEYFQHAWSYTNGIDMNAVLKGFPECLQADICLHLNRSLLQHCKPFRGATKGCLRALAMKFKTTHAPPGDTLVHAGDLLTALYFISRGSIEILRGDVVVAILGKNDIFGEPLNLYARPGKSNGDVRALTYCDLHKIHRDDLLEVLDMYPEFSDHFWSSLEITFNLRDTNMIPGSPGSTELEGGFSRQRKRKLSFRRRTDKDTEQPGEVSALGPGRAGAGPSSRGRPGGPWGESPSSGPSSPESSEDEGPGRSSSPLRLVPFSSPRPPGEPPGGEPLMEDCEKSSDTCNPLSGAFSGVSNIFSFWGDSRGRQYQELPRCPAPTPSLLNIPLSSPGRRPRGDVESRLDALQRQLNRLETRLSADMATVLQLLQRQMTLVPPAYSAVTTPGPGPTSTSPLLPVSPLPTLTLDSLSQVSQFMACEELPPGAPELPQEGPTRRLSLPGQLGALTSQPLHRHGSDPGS
COMT (catechol-O-methyl transferase), sequence (D3K5L3 entry or part of it): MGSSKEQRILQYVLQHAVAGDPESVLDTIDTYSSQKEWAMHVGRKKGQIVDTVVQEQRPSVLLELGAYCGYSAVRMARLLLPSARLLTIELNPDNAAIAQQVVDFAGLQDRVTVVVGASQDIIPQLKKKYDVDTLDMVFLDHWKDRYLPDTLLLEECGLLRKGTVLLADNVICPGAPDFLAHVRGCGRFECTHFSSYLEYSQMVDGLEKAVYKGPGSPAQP

CN1CCN(c2nc(NCCN3CCOCC3)c3nc(Cl)c(NCCN4CCOCC4)nc3n2)CC1 [JB6121, 6-chloro-2-(4-methylpiperazin-1-yl)-N^4,N^7-bis(2-morpholinoethyl)pteridine-4,7-diamine]
ED50 (TLR7; 4 h, IP, read-out: ID50, TLR7 knockdown, IP dose): ~3.92 mg/kg
ED50 (TLR7; 5 h, PO, read-out: ID50, TLR7 knockdown, PO dose): ~11.4 mg/kg
ID50, TLR7 knockdown, IP injection (TLR7; mice, IP, JB6011 challenge): 98.34 μg injection dose
ID50, TLR7 knockdown, PO gavage (TLR7; mice, PO, JB6011 challenge): 286 μg delivery dose
inhibition at 10 µM (hERG): 11%
inhibition at 10 µM [1]: 53.5%
